In brackets after ≈: the same amount, converted by molar mass. Where two headings read alike, the source gives them in different places. Where a SMILES comes first, the peptide text is derived from it. Bridges are numbered along the chain shown (N, C = ends). [ ]: non-standard residue; d: D form. The star is where a group is joined. Heptanoyl(6-Me) = CC(C)CCCCC(=O)*; Nonanoyl = CCCCCCCCC(=O)*; X2 = CC[C@H](C)CCCCC(=O)*; dDab = NCC[C@@H](N)C(=O)O; Heptanoyl = CCCCCCC(=O)*; Octanoyl = CCCCCCCC(=O)*; Dab = NCC[C@H](N)C(=O)O
Columns and labels:
Type in all cases: cell-based
[1] = tested on: Klebsiella pneumoniae ATCC BAA-2146 (NDM-1); test: Antibacterial activity, MIC by dish double dilution method
Summary of the method: (§1)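 Read-out was the lowest drug level in agar preventing visible colony growth after 18 to 24 hours at 35° C. Plates held twofold dilutions (0.03–128 μg/mL final), prepared following CLSI. Bacteria were inoculated at 10^4 CFU/dot with a multipoint inoculator.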

[2] = tested on: Escherichia coli ATCC 25922
Summary of the method: as §1

[3] = tested on: Staphylococcus epidermidis ATCC 12228
Summary of the method: as §1

[4] = tested on: Acinetobacter baumannii ATCC 19606
Summary of the method: as §1

[5] = tested on: Pseudomonas aeruginosa ATCC 27853
Summary of the method: as §1

[6] = Nephrotoxicity test, renal cytotoxicity by MTT method; conditions: African green monkey
Method: African green monkey kidney cells (Vero cells) were cultured in MEM medium (Hyclone), 10% fetal calf serum (Invitrogen) was added before use, cultured at 37° C. under 5% CO2.
Experiment was carried out using MTT method. After digestion, cells in logarithmic growth phase were counted, then the cells were inoculated in a 96-well culture plate. After incubation for 24 h to be adherent, cells were treated with a concentration gradient of a compound of the invention (e.g., a compound prepared in the Embodiments) and the controls. After 72 h, the culture solution was removed, 100 uL of MTT reagent at a concentration of 0.5 mg/ml was added, the medium was removed after incubating for 3 hours in a 37° C. incubator. Add 150 μL DMSO solvent to each well, mix for 3 min, after which the absorbance at 570 nm (A) was measured with a microplate reader.
Cell viability %=(Adosed cell−Abackground)/(Acontrol cell−Abackground)×100%. The average value of 3 parallel wells was taken for each detection point, and the inhibition curve was drawn to calculate the IC50 value.
The African green monkey kidney cells (Vero cells) used in the experiment were from the Cell Resource Center of the Institute of Basic Medicine, Chinese Academy of Medical Sciences.

[7] = agar dilution, 10^4 CFU/dot, 18 to 24 hours at 35° C.

| MIC K. pneumoniae ATCC BAA-2146 (NDM-1) ([1]; ATCC BAA-2146) [µg/mL] | MIC E. coli ATCC 25922 ([2]; ATCC 25922) [µg/mL] | MIC S. epidermidis ATCC 12228 ([3]; ATCC 12228) [µg/mL] | MIC A. baumannii ATCC 19606 ([4]; ATCC 19606) [µg/mL] | MIC P. aeruginosa ATCC 27853 ([5]; ATCC 27853) [µg/mL] | Compound | IC50 at 72 h [6] [µg/mL] | MIC K. pneumoniae ATCC BAA-2146 (NDM-1) [1, 7] [µg/mL] | MIC E. coli ATCC 25922 [2, 7] [µg/mL] | MIC S. epidermidis ATCC 12228 [3, 7] [µg/mL] | MIC A. baumannii ATCC 19606 [4, 7] [µg/mL] | MIC P. aeruginosa ATCC 27853 [5, 7] [µg/mL] | IC50 at 72 h ([6]; MTT, 72 h treatment, 3 parallel wells, read-out: Renal cytotoxicity IC50, Vero cells) [µg/mL] |
| --- | --- | --- | --- | --- | --- | --- | --- | --- | --- | --- | --- | --- |
| 0.5 (≈ 0.437 µM) | 0.5 (≈ 0.437 µM) | >128 | 0.5 (≈ 0.437 µM) | 1 (≈ 0.875 µM) | CC(C)CCCCC(=O)N[C@@H](CCN)C(=O)N[C@H](C(=O)N[C@H](CCN)C(=O)N[C@H]1CCNC(=O)[C@H]([C@@H](C)O)NC(=O)[C@H](CCN)NC(=O)[C@H](CCN)NC(=O)[C@H]([C@@H](C)O)NC(=O)[C@@H](CC(C)C)NC(=O)[C@H](CCN)NC1=O)[C@@H](C)O [Compound 31, 6-methylheptanoyl-Dab-Thr-D-Dab-ring(4-10)[Dab-Dab-D-Leu-Thr-Dab-Dab-Thr]] ({Heptanoyl(6-Me)}-[Dab]T[dDab][Dab][Dab][dL]T[Dab][Dab]T; lactam 4-C) | 288 ± 23.3 (≈ 252 µM) | – | – | – | – | – | – |
| – | – | – | – | – | CC[C@H](C)CCCCC(=O)N[C@@H](CCN)C(=O)N[C@H](C(=O)N[C@@H](CCN)C(=O)N[C@H]1CCNC(=O)[C@H]([C@@H](C)O)NC(=O)[C@H](CCN)NC(=O)[C@H](CCN)NC(=O)[C@H](CC(C)C)NC(=O)[C@@H](Cc2ccccc2)NC(=O)[C@H](CCN)NC1=O)[C@@H](C)O [Compound 42, (S)-6-methyloctanoyl-Dab-Thr-Dab-ring(4-10)[Dab-Dab-D-Phe-Leu-Dab-Dab-Thr]] (X2-[Dab]T[Dab][Dab][Dab][dF]L[Dab][Dab]T; lactam 4-C) | – | 0.5 (≈ 0.415 µM) | 0.5 (≈ 0.415 µM) | 32 (≈ 26.6 µM) | 1 (≈ 0.831 µM) | 2 (≈ 1.66 µM) | 71.3 ± 6.08 (≈ 59.2 µM) |
| – | 0.5 (≈ 0.42 µM) | 64 (≈ 53.8 µM) | 0.5 (≈ 0.42 µM) | 2 (≈ 1.68 µM) | CC(C)CCCCC(=O)N[C@@H](CCN)C(=O)N[C@H](C(=O)N[C@@H](CCN)C(=O)N[C@H]1CCNC(=O)[C@H]([C@@H](C)O)NC(=O)[C@H](CCN)NC(=O)[C@H](CCN)NC(=O)[C@H](CC(C)C)NC(=O)[C@@H](Cc2ccccc2)NC(=O)[C@H](CCN)NC1=O)[C@@H](C)O [Compound 43, 6-methylheptanoyl-Dab-Thr-Dab-ring(4-10)[Dab-Dab-D-Phe-Leu-Dab-Dab-Thr]] ({Heptanoyl(6-Me)}-[Dab]T[Dab][Dab][Dab][dF]L[Dab][Dab]T; lactam 4-C) | 159 ± 14.1 (≈ 134 µM) | 1 (≈ 0.841 µM) | – | – | – | – | – |
| 1 (≈ 0.841 µM) | 0.5 (≈ 0.42 µM) | 32 (≈ 26.9 µM) | 0.5 (≈ 0.42 µM) | 1 (≈ 0.841 µM) | CCCCCCCC(=O)N[C@@H](CCN)C(=O)N[C@H](C(=O)N[C@@H](CCN)C(=O)N[C@H]1CCNC(=O)[C@H]([C@@H](C)O)NC(=O)[C@H](CCN)NC(=O)[C@H](CCN)NC(=O)[C@H](CC(C)C)NC(=O)[C@@H](Cc2ccccc2)NC(=O)[C@H](CCN)NC1=O)[C@@H](C)O [Compound 44, octanoyl-Dab-Thr-Dab-ring(4-10)[Dab-Dab-D-Phe-Leu-Dab-Dab-Thr]] (Octanoyl-[Dab]T[Dab][Dab][Dab][dF]L[Dab][Dab]T; lactam 4-C) | 86.4 ± 8.31 (≈ 72.6 µM) | – | – | – | – | – | – |
| 0.5 (≈ 0.425 µM) | 0.5 (≈ 0.425 µM) | 128 (≈ 109 µM) | 0.5 (≈ 0.425 µM) | 1 (≈ 0.851 µM) | CCCCCCC(=O)N[C@@H](CCN)C(=O)N[C@H](C(=O)N[C@@H](CCN)C(=O)N[C@H]1CCNC(=O)[C@H]([C@@H](C)O)NC(=O)[C@H](CCN)NC(=O)[C@H](CCN)NC(=O)[C@H](CC(C)C)NC(=O)[C@@H](Cc2ccccc2)NC(=O)[C@H](CCN)NC1=O)[C@@H](C)O [Compound 45, heptanoyl-Dab-Thr-Dab-ring(4-10)[Dab-Dab-D-Phe-Leu-Dab-Dab-Thr]] (Heptanoyl-[Dab]T[Dab][Dab][Dab][dF]L[Dab][Dab]T; lactam 4-C) | 160 ± 13.6 (≈ 136 µM) | – | – | – | – | – | – |
| 2 (≈ 1.66 µM) | 1 (≈ 0.831 µM) | 32 (≈ 26.6 µM) | 1 (≈ 0.831 µM) | 2 (≈ 1.66 µM) | CCCCCCCCC(=O)N[C@@H](CCN)C(=O)N[C@H](C(=O)N[C@@H](CCN)C(=O)N[C@H]1CCNC(=O)[C@H]([C@@H](C)O)NC(=O)[C@H](CCN)NC(=O)[C@H](CCN)NC(=O)[C@H](CC(C)C)NC(=O)[C@@H](Cc2ccccc2)NC(=O)[C@H](CCN)NC1=O)[C@@H](C)O [Compound 46, nonanoyl-Dab-Thr-Dab-ring(4-10)[Dab-Dab-D-Phe-Leu-Dab-Dab-Thr]] (Nonanoyl-[Dab]T[Dab][Dab][Dab][dF]L[Dab][Dab]T; lactam 4-C) | 33.1 ± 2.64 (≈ 27.5 µM) | – | – | – | – | – | – |
| 1 (≈ 0.831 µM) | 1 (≈ 0.831 µM) | 128 (≈ 106 µM) | 1 (≈ 0.831 µM) | 2 (≈ 1.66 µM) | CC[C@H](C)CCCCC(=O)N[C@@H](CCN)C(=O)N[C@H](C(=O)N[C@@H](CCN)C(=O)N[C@H]1CCNC(=O)[C@H]([C@@H](C)O)NC(=O)[C@H](CCN)NC(=O)[C@H](CCN)NC(=O)[C@H]([C@@H](C)CC)NC(=O)[C@@H](Cc2ccccc2)NC(=O)[C@H](CCN)NC1=O)[C@@H](C)O [Compound 47, (S)-6-methyloctanoyl-Dab-Thr-Dab-ring(4-10)[Dab-Dab-D-Phe-Ile-Dab-Dab-Thr]] (X2-[Dab]T[Dab][Dab][Dab][dF]I[Dab][Dab]T; lactam 4-C) | 74.7 ± 6.13 (≈ 62.1 µM) | – | – | – | – | – | – |
| 0.5 (≈ 0.437 µM) | 0.12 (≈ 0.105 µM) | >128 | 0.06 (≈ 0.0524 µM) | 2 (≈ 1.75 µM) | CC[C@H](C)CCCCC(=O)N[C@@H](CCN)C(=O)N[C@H](C(=O)N[C@H](CO)C(=O)N[C@H]1CCNC(=O)[C@H]([C@@H](C)O)NC(=O)[C@H](CCN)NC(=O)[C@H](CCN)NC(=O)[C@H]([C@@H](C)O)NC(=O)[C@@H](CC(C)C)NC(=O)[C@H](CCN)NC1=O)[C@@H](C)O [Compound 58, (S)-6-methyloctanoyl-Dab-Thr-D-Ser-ring(4-10)[Dab-Dab-D-Leu-Thr-Dab-Dab-Thr]] (X2-[Dab]T[dS][Dab][Dab][dL]T[Dab][Dab]T; lactam 4-C) | 189 ± 11.3 (≈ 165 µM) | – | – | – | – | – | – |
| 0.5 (≈ 0.442 µM) | 0.25 (≈ 0.221 µM) | >128 | 0.12 (≈ 0.106 µM) | 2 (≈ 1.77 µM) | CC(C)CCCCC(=O)N[C@@H](CCN)C(=O)N[C@H](C(=O)N[C@H](CO)C(=O)N[C@H]1CCNC(=O)[C@H]([C@@H](C)O)NC(=O)[C@H](CCN)NC(=O)[C@H](CCN)NC(=O)[C@H]([C@@H](C)O)NC(=O)[C@@H](CC(C)C)NC(=O)[C@H](CCN)NC1=O)[C@@H](C)O [Compound 59, 6-methylheptanoyl-Dab-Thr-D-Ser-ring(4-10)[Dab-Dab-D-Leu-Thr-Dab-Dab-Thr]] ({Heptanoyl(6-Me)}-[Dab]T[dS][Dab][Dab][dL]T[Dab][Dab]T; lactam 4-C) | 318 ± 25.6 (≈ 281 µM) | – | – | – | – | – | – |
| 1 (≈ 0.855 µM) | 1 (≈ 0.855 µM) | 128 (≈ 109 µM) | 1 (≈ 0.855 µM) | 2 (≈ 1.71 µM) | CC[C@H](C)CCCCC(=O)N[C@@H](CCN)C(=O)N[C@H](C(=O)N[C@@H](CCN)C(=O)N[C@H]1CCNC(=O)[C@H]([C@@H](C)O)NC(=O)[C@H](CCN)NC(=O)[C@H](CCN)NC(=O)[C@H]([C@@H](C)CC)NC(=O)[C@@H](CC(C)C)NC(=O)[C@H](CCN)NC1=O)[C@@H](C)O [Compound 71, (S)-6-methyloctanoyl-Dab-Thr-Dab-ring(4-10)[Dab-Dab-D-Leu-Ile-Dab-Dab-Thr]] (X2-[Dab]T[Dab][Dab][Dab][dL]I[Dab][Dab]T; lactam 4-C) | 176 ± 14.7 (≈ 151 µM) | – | – | – | – | – | – |
| 0.5 (≈ 0.433 µM) | 0.5 (≈ 0.433 µM) | 128 (≈ 111 µM) | 0.5 (≈ 0.433 µM) | 2 (≈ 1.73 µM) | CC[C@H](C)CCCCC(=O)N[C@@H](CCN)C(=O)N[C@H](C(=O)N[C@@H](CCN)C(=O)N[C@H]1CCNC(=O)[C@H]([C@@H](C)O)NC(=O)[C@H](CCN)NC(=O)[C@H](CCN)NC(=O)[C@H](C(C)C)NC(=O)[C@@H](CC(C)C)NC(=O)[C@H](CCN)NC1=O)[C@@H](C)O [Compound 72, (S)-6-methyloctanoyl-Dab-Thr-Dab-ring(4-10)[Dab-Dab-D-Leu-Val-Dab-Dab-Thr]] (X2-[Dab]T[Dab][Dab][Dab][dL]V[Dab][Dab]T; lactam 4-C) | 131 ± 8.69 (≈ 113 µM) | – | – | – | – | – | – |
